We go through five molecules from US11485729B2, “Substituted pyridazinone compound” (Shenzhen TargetRx, Inc., priority 2018, dated 2022).

In general, half-life refers to the time in which the quantity being followed falls by half. One may read the microsomal CLint as the rate of metabolic loss divided by the concentration.

SMILES strings stand for the structures. A value given as a limit tells only on which side of the number the result lay.

The nature of one data set: Metabolic stability evaluation in human liver microsomes. In kind it is in vitro ADME. The settings on record: pH 7.4, Human liver microsome, 0.5 mg/mL protein, 1 μM compound. As for the experimental part: (2) Metabolic Stability Evaluation
Microsome assay: human liver microsomes: 0.5 mg/mL, Xenotech; rat liver microsomes: 0.5 mg/mL, Xenotech; coenzyme (NADPH/NADH): 1 mM, Sigma Life Science; magnesium chloride: 5 mM, 100 mM phosphate buffer (pH 7.4).
Preparation of stock solutions: Powder of the example compounds were accurately weighed and dissolved in DMSO to 5 mM respectively.
Preparation of phosphate buffer (100 mM, pH7.4): A pre-prepared 0.5M potassium dihydrogen phosphate (150 mL) was mixed with 0.5M dibasic potassium phosphate (700 mL). The pH of the mixture was adjusted to 7.4 with 0.5M dibasic potassium phosphate solution. The mixture was diluted 5-fold with ultrapure water before use, and magnesium chloride was added to obtain a phosphate buffer (100 mM) containing 100 mM potassium phosphate, 3.3 mM magnesium chloride, pH 7.4.
A NADPH regeneration system solution (containing 6.5 mM NADP, 16.5 mM G-6-P, 3 U/mL G-6-P D, 3.3 mM magnesium chloride) was prepared and placed on wet ice prior to use.
Preparation of stop solution: an acetonitrile solution containing 50 ng/mL propranolol hydrochloride and 200 ng/mL tolbutamide (internal standard). 25057.5 μL of phosphate buffer (pH 7.4) was taken into a 50 mL centrifuge tube, to which 812.5 μL of human liver microsomes were added, and mixed to obtain a liver microsome dilution with a protein concentration of 0.625 mg/mL. 25057.5 μL of phosphate buffer (pH 7.4) was taken into a 50 mL centrifuge tube, to which 812.5 μL of SD rat liver microsomes were added, and mixed to obtain a liver microsome dilution with a protein concentration of 0.625 mg/mL.
Incubation of the samples: The stock solutions of the respective compounds were respectively diluted to 0.25 mM with an aqueous solution containing 70% acetonitrile, and used as a working solution, ready for use. 398 μL of the dilutions of human liver microsomes and rat liver microsomes were added to 96-well incubation plates (N=2), respectively, and 2 μL of 0.25 mM working solution was added respectively and mixed.
Metabolic stability assay: 300 μL of pre-chilled stop solution was added to each well of 96-well deep well plates and placed on ice as stop plates. The 96-well incubation plates and NADPH regeneration system were placed in a 37° C. water bath, shaken at 100 rpm and pre-incubated for 5 min. 80 μL of incubation solution was taken out from each well of the incubation plates and added to the stop plates, mixed, and replenished with 20 μL of NADPH regeneration system solution as a 0-min sample. 80 μL of NADPH regeneration system solution was added to each well of the incubation plates to start the reaction and start counting. […] Separately, 100 μL of the reaction solutions was taken at 10, 30, and 90 min after the reaction, respectively, added to stop plates, and vortexed for 3 minutes to terminate the reaction. The stop plates were centrifuged at 5000×g at 4° C. for 10 min. 100 μL of the supernatant was added to a 96-well plate to which 100 μL of distilled water was previously added, mixed, and analyzed by LC-MS/MS.
Data analysis: The peak areas of the corresponding compounds and internal standard were detected by LC-MS/MS system, and the ratio of the peak area of the compounds to the internal standard was calculated.
The metabolic stability of the compounds in human and rat liver microsomes was evaluated by simultaneously testing and comparing the compounds disclosed herein and the non-deuterated compound. The non-deuterated compound MGL-3196 was used as a control sample.
Background: Liver microsomes are vesicles of endoplasmic reticulum, rich in cytochrome P450 enzymes.
`CC(C)c1cc(Oc2c(Cl)cc(-n3nc(C#N)c(=O)[nH]c3=O)cc2Cl)n[nH]c1=O` [MGL-3196, 2-(3,5-dichloro-4-((5-isopropyl-6-oxo-1,6-dihydropyridazin-3-yl)oxy)phenyl)-3,5-dioxo-2,3,4,5-tetrahydro-1,2,4-triazine-6-carbonitrile, reference compound]: the half-life at 1 μM is less than 8.33 h and the microsomal CLint at 1 μM lay within 2.5 to 3 µL/min/mg.

Turning to `[2H]c1c(Cl)c(Oc2cc(C(C)C)c(=O)[nH]n2)c(Cl)c([2H])c1-n1nc(C#N)c(=O)[nH]c1=O` [Compound M-4, 2-(3,5-dichloro-4-((5-isopropyl-6-oxo-1,6-dihydropyridazin-3-yl)oxy)phenyl-2,6-d2)-3,5-dioxo-2,3,4,5-tetrahydro-1,2,4-triazine-6-carbonitrile], the half-life at 1 μM is more than 16.7 h and the intrinsic clearance (microsomal CLint) at 1 μM is 0.1 to 2 µL/min/mg.

On to `[2H]C([2H])([2H])C(c1cc(Oc2c(Cl)cc(-n3nc(C#N)c(=O)[nH]c3=O)cc2Cl)n[nH]c1=O)C([2H])([2H])[2H]` [Compound M-2, 2-(3,5-dichloro-4-((6-oxo-5-(propan-2-yl-1,1,1,3,3,3-d6)-1,6-dihydropyridazin-3-yl)oxy)phenyl)-3,5-dioxo-2,3,4,5-tetrahydro-1,2,4-triazine-6-carbonitrile], for which the half-life at 1 μM is more than 16.7 h and the intrinsic metabolic clearance (microsomal CLint) at 1 μM is 0.1 to 2 µL/min/mg.

In the case of `[2H]C([2H])([2H])C(C)c1cc(Oc2c(Cl)cc(-n3nc(C#N)c(=O)[nH]c3=O)cc2Cl)n[nH]c1=O` (stereo not drawn) [Compound M-1, 2-(3,5-dichloro-4-((6-oxo-5-(propan-2-yl-1,1,1-d3)-1,6-dihydropyridazin-3-yl)oxy)phenyl)-3,5-dioxo-2,3,4,5-tetrahydro-1,2,4-triazine-6-carbonitrile], the half-life at 1 μM is more than 16.7 h and the microsomal CLint at 1 μM is 0.1 to 2 µL/min/mg.

In the case of `[2H]c1c(Cl)c(Oc2cc(C(C([2H])([2H])[2H])C([2H])([2H])[2H])c(=O)[nH]n2)c(Cl)c([2H])c1-n1nc(C#N)c(=O)[nH]c1=O` [Compound M-3, 2-(3,5-dichloro-4-((6-oxo-5-(propan-2-yl-1,1,1,3,3,3-d6)-1,6-dihydropyridazin-3-yl)oxy)phenyl-2,6-d2)-3,5-dioxo-2,3,4,5-tetrahydro-1,2,4-triazine-6-carbonitrile], the half-life at 1 μM was more than 16.7 h and the microsomal CLint at 1 μM fell in the range of 0.1 to 2 µL/min/mg.

Experiment in another data set: not given
The settings on record: preclinical toxicology, clinical phase 1 and phase II data; cited from earlier work.
With `CC(C)c1cc(Oc2c(Cl)cc(-n3nc(C#N)c(=O)[nH]c3=O)cc2Cl)n[nH]c1=O` [MGL-3196, 2-(3,5-dichloro-4-((5-isopropyl-6-oxo-1,6-dihydropyridazin-3-yl)oxy)phenyl)-3,5-dioxo-2,3,4,5-tetrahydro-1,2,4-triazine-6-carbonitrile, reference compound], the “effect on the central thyroid axis, heart rate or bone” value is reported as “no inhibitory effect” and the liver enzymes entry is “no increase of the liver enzymes has been observed”.
